Measurements reported in paper PMC11510424, “Developing Robust Human Liver Microsomal Stability Prediction Models: Leveraging Inter-Species Correlation with Rat Data” (Pharmaceutics, 2024).
Like-named read-outs stand apart in the source and are kept apart here.

Method: The substrate depletion method was used to determine half-life (t1/2) of compounds by measuring the disappearance of the parent compound over time. Incubations were performed on a Tecan EVO 200 robotic system (Morrisville, NC, USA), equipped with a 96-channel head, Inheco heating block, and controlled by EVOware software (Version 3.5). Mixed-gender human liver microsomes were purchased from Xenotech (Kansas City, KS, USA) (Catalog: H0610). Gentest NADPH Regenerating Solution A and B (Catalog: 451220/451200), Axygen reservoirs (Catalog: RES-SW384-LP/RES-SW384-HP) were purchased from Corning Inc. (Corning, NY, USA). Incubation plates (384-well, 250 µL; Catalog# 186002632) and LC/MS analysis plates (384-well, 100 µL; Catalog# 186002631) were purchased from Waters Inc. (Milford, MA, USA). […] An albendazole solution in acetonitrile (ACN/IS) was prepared for use as an internal standard. Each 110 μL reaction mixture included the test compound (1 μM), HLM (0.5 mg/mL), and NADPH regenerating system in phosphate buffer (pH 7.4). The samples were incubated in 384-well plates at 37 °C for 0, 5, 10, 15, 30, and 60 min. At each designated time point, 10 μL of the mixture was transferred to another 384-well plate containing cold ACN/IS. The plates were then centrifuged at 3000 rpm for 20 min at 4 °C, and supernatants were collected into a 384-well injection plate. Sample quantification was performed using Thermo UPLC/HRMS and data were analyzed using TraceFinder software (Version 4.1). The data were then extracted, and half-life analysis was performed using our in-house Validator software (Version 1.0) as described previously.
[1] = mixed-gender HLM 0.5 mg/mL, test compound 1 μM, NADPH regenerating system, pH 7.4, 37 °C, 0-60 min, mean ± S.D. over 6 years, > 40 plates, t1/2 capped at 120 min

| Half-Life (t1/2) [1] [min] | Half-Life (t1/2) (pH 7.4) [min] | Structure (SMILES) |
| --- | --- | --- |
| 14.4 ± 4.1 | – | O=C1CC2(CCCC2)CC(=O)N1CCCCN1CCN(c2ncccn2)CC1 [Buspirone, buspirone] |
| – | >120 | Cc1cc(=O)n(-c2ccccc2)n1C [Antipyrine, antipyrine] |
| 55.2 ± 10.1 | – | CC(C)NCC(O)COc1cccc2ccccc12 (stereo not drawn) [Propranolol, propranolol] |
